Assay results taken from PubChem BioAssay AID608 (Sanford-Burnham Center for Chemical Genomics, 2007).
Calls of active or inactive are those of the source. How the calls were made is not given here.

Each compound was assayed against Peptidyl-prolyl cis-trans isomerase FKBP1A (Homo sapiens) (UniProt P62942) (assay: small-molecule binding to FKBP12 – biophysical, NMR detection (AID 608)). Conditions: purified FKBP12.
Peptidyl-prolyl cis-trans isomerase FKBP1A (Homo sapiens), sequence (P62942 whole entry, looked up): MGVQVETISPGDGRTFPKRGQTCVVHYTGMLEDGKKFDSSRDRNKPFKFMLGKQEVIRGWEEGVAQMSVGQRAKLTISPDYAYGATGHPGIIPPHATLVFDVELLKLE
In the case of Nc1ncnc2c1ncn2C1O[C@H](COP(=O)(O)O)[C@@H](O)[C@H]1O (some centres not stated), the Kd is reported as > 4 mM (inactive).
For Cc1nnc(N2CCN(c3ccccc3)CC2)[nH]c1=O, the Kd was > 4 mM (inactive).
For Oc1cc(O)c2c(c1)O[C@H](c1cc(O)c(O)c(O)c1)[C@H](O)C2, the Kd was > 4 mM (inactive).
With CC(=O)N1CCN(c2ccc(O)cc2)CC1 the Kd was > 4 mM (inactive).
In the case of CC(=O)Nc1ccc(N2C(=O)C=CC2=O)cc1C, the Kd is reported as > 4 mM (inactive).
For O=S(=O)(N1CCOCC1)n1c(Cc2ccccc2)nc2ccccc21, the Kd was “inactive”.
With O=C(Nc1cccnc1)c1c(F)cccc1F the Kd was > 4 mM (inactive).
For O=C(CSc1ncn[nH]1)c1ccc2c(c1)OCCO2, the Kd was > 4 mM (inactive).
For COC(=O)c1nc(-c2ccccc2)oc1N(C)C, the Kd was > 4 mM (inactive).
O=C(O)CCC(=O)c1cccc2ccccc12 was tested, and the Kd was > 4 mM (inactive).
With O=C1CS/C(=N/S(=O)(=O)c2ccccc2)N1 the Kd was > 4 mM (inactive).
O=c1[nH]nnc2sc3c(c12)CCCC3 was tested, and the Kd was > 4 mM (inactive).
With O=C1CC(=O)N(Cc2ccco2)C(=S)N1 the Kd was > 4 mM (inactive).
For O=C(c1cccs1)N1CCCc2ccccc21, the Kd was > 4 mM (inactive).
For CSc1nc(-c2ccco2)nn1S(C)(=O)=O, the Kd was > 4 mM (inactive).
For CC(=O)Nc1nc(-c2cccs2)cs1, the Kd was > 4 mM (inactive).
In the case of O=C(NCc1ccccn1)c1ccc(Br)s1, the Kd is reported as > 4 mM (inactive).
For O=C(NCC1CCCCC1)c1ccco1, the Kd was > 4 mM (inactive).
In the case of NC1=NC(=O)/C(=C/c2cccs2)S1, the Kd is reported as > 4 mM (inactive).
In the case of Cc1nn2c(=O)nc3sc4c(c3c2[nH]c1=O)CCCC4, the Kd is reported as > 4 mM (inactive).
With C/C=C(\C)C(=O)O[C@H]1C[C@@H](OC(C)=O)[C@@]2(C(=O)OC)CO[C@@H]3C2[C@]12CO[C@](O)(C(=O)OC)[C@H]2[C@](C)(C12O[C@@]1(C)[C@H]1C[C@@H]2OC2OC=C[C@@]21O)[C@@H]3O (some centres not stated) the Kd was > 4 mM (inactive).
For OCCNC(=S)Nc1ccc(F)cc1, the Kd was > 4 mM (inactive).
CC(=O)Nc1ccc2c(c1)CCCC2=O was tested, and the Kd was > 4 mM (inactive).
With CC(C)[C@@H]1CC[C@@H](C)CC1=O the Kd was > 4 mM (inactive).
CC(=O)c1cnc2nc(C(F)(F)F)nn2c1C was tested, and the Kd was > 4 mM (inactive).
With Cc1cc(C)nc(/N=C(/N)N2CCC(C(N)=O)CC2)n1 the Kd was > 4 mM (inactive).
CC1=C(C(N)=O)C(c2ccco2)C(C(N)=O)=C(C)N1 was tested, and the Kd was > 4 mM (inactive).
With CC(C)=CCc1c(O)cc(C)oc1=O the Kd was > 4 mM (inactive).
With O=c1[nH]cc(NC(=S)N2CCOCC2)c(=O)[nH]1 the Kd was > 4 mM (inactive).
With Cc1ccc(S(=O)(=O)CC(=O)N(C)C)cc1 the Kd was > 4 mM (inactive).
For NC(=O)c1ccc2c(c1)OCO2, the Kd was > 4 mM (inactive).
With NC1CSCC1O (configuration not stated) the Kd was > 4 mM (inactive).
In the case of O=c1[nH]c2sc3c(c2c2ncnn12)CCCC3, the Kd is reported as > 4 mM (inactive).
Cc1c(C)[n+]([O-])c(-c2ccc([N+](=O)[O-])cc2)n1O was tested, and the Kd was > 4 mM (inactive).
For O=C1NC(=S)NC(=O)C1=Cc1cccs1, the Kd was > 4 mM (inactive).
With Cc1[nH]c2ccccc2c(=O)c1CO the Kd was > 4 mM (inactive).
In the case of O=C1CCCN1c1ccc(S(=O)O)cc1, the Kd is reported as > 4 mM (inactive).
With Cc1ccc(SCc2nc(-c3ccncc3)no2)cc1 the Kd was “inactive”.
CN(C)S(=O)(=O)c1cccc(N)c1 was tested, and the Kd was > 4 mM (inactive).
CC(=O)CNc1cc(CNC(C)=O)c(C)cc1C was tested, and the Kd was > 4 mM (inactive).
In the case of Cc1cc(N)cc(C)c1OCC(=O)N1CCOCC1, the Kd is reported as > 4 mM (inactive).
Nc1cccc(S(=O)(=O)N2CCCC2)c1 was tested, and the Kd was > 4 mM (inactive).
For NC(=O)c1ccsc1NC(=O)c1ccco1, the Kd was > 4 mM (inactive).
In the case of CC(=O)OC[C@@]1(O)C[C@@]23CCC4c5ccoc5CC[C@]4(C)C2CC[C@@H]1C3 (some centres not stated), the Kd is reported as > 4 mM (inactive).
For COc1cccc2onc(N)c12, the Kd was > 4 mM (inactive).
With Nc1ccc2c(C(F)(F)F)cc(=O)oc2c1 the Kd was > 4 mM (inactive).
With COc1ccc(-c2ccc(OC)cc2C(=O)O)cc1 the Kd was > 4 mM (inactive).
For c1ccc(CN2CCC3(CC2)Nc2ccccc2CO3)cc1, the Kd was > 4 mM (inactive).
With CC(=O)C1CC[C@H]2C3CC[C@H]4C[C@H](O)CC[C@]4(C)C3CC[C@]12C (some centres not stated) the Kd was > 4 mM (inactive).
In the case of NC(=O)CC[C@H](N)C(=O)O, the Kd is reported as > 4 mM (inactive).
COc1ccc(-c2nc(N)n(C(C)=O)n2)cc1 was tested, and the Kd was > 4 mM (inactive).
In the case of CC1=C2[C@H]3OC(=O)[C@@H](C)[C@@H]3CC[C@@]2(C)C=CC1=O, the Kd is reported as > 4 mM (inactive).
For Cc1cc(=O)[nH]c(N2CCCCC2)n1, the Kd was > 4 mM (inactive).
In the case of CCC1(CC)C(=O)NC(=O)N=C1N, the Kd is reported as > 4 mM (inactive).
For O=C(O)c1cccc2c1OCCO2, the Kd was > 4 mM (inactive).
With CCOC(=O)C1CCC(=O)c2cccn21 (configuration not stated) the Kd was > 4 mM (inactive).
Cc1ccc(F)cc1NC(=O)c1ccc2c(c1)OCO2 was tested, and the Kd was > 4 mM (inactive).
In the case of C=CC(C1=CC(=O)C(OC)=CC1=O)c1ccccc1 (configuration not stated), the Kd is reported as > 4 mM (inactive).
N#Cc1cnc(N2CCCCC2)nc1N was tested, and the Kd was > 4 mM (inactive).
In the case of COCc1cc(=O)oc2cc(O)c(Cl)cc12, the Kd is reported as > 4 mM (inactive).
In the case of O=C(Nc1cccc(O)c1)c1ccccc1, the Kd is reported as > 4 mM (inactive).
With Cc1ccc(-n2ncc(C#N)c2/N=C/N(C)C)cc1 the Kd was > 4 mM (inactive).
In the case of Cn1c(NCc2ccccc2O)nc2ccccc21, the Kd is reported as > 4 mM (inactive).
In the case of NCc1oc(-c2ccccc2)cc1C(=O)O, the Kd is reported as > 4 mM (inactive).
In the case of CC(=O)Nc1cccs1, the Kd is reported as > 4 mM (inactive).
COc1ccc(C(=O)O)cc1OC was tested, and the Kd was > 4 mM (inactive).
For Cc1cccc(NS(=O)(=O)c2cccs2)n1, the Kd was > 4 mM (inactive).
In the case of S=C(NCc1ccco1)NN1CCOCC1, the Kd is reported as > 4 mM (inactive).
For Cc1ccc(N2C(=O)CC(=O)NC2=O)cc1, the Kd was > 4 mM (inactive).
For CC1=NN2C(=N)CC(=O)N=C2S1, the Kd was > 4 mM (inactive).
For CCCCCC/C=C\CCCCCCCc1cccc(O)c1C(=O)O, the Kd was > 4 mM (inactive).
For O=C(O)c1ccc2snnc2c1, the Kd was > 4 mM (inactive).
In the case of COc1cc2c(cc1OC)C(=O)OC2, the Kd is reported as > 4 mM (inactive).
In the case of COc1ccc([C@H]2COc3c(ccc(O)c3OC)C2)c(OC)c1O, the Kd is reported as > 4 mM (inactive).
For Cc1cc(-c2ccc(Cl)cc2)n2nc(N)nc2n1, the Kd was > 4 mM (inactive).
For CN1CCC(NC(=S)NC2CC2)CC1, the Kd was > 4 mM (inactive).
For CCCS(=O)(=O)N1CCN(c2ccccc2F)CC1, the Kd was > 4 mM (inactive).
For C[n+]1cccc(C(=O)[O-])c1, the Kd was > 4 mM (inactive).
With Cc1nn2c(=O)/c(=C/c3cccc(F)c3)sc2nc1=O the Kd was > 4 mM (inactive).
In the case of O=C(Nc1cccnc1)N1CCOCC1, the Kd is reported as > 4 mM (inactive).
O=C(Cc1c(F)cccc1Cl)Nc1cccnc1 was tested, and the Kd was > 4 mM (inactive).
With Cc1nn(C)c(Cl)c1S(=O)(=O)N1CCOCC1 the Kd was > 4 mM (inactive).
With CC(=O)Nc1ccc(C)cc1NC(C)=O the Kd was > 4 mM (inactive).
With O=C(c1ccccc1)c1ccccc1C(=O)N1CCOCC1 the Kd was > 4 mM (inactive).
In the case of CS(=O)(=O)Nc1cc2c3c(c1)CCN3C(=O)CC2, the Kd is reported as > 4 mM (inactive).
In the case of O=C(c1ccc2c(c1)OCO2)N1CCC2(CC1)OCCO2, the Kd is reported as > 4 mM (inactive).
For OCC1COc2ccccc2O1 (configuration not stated), the Kd was > 4 mM (inactive).
In the case of O=S1(=O)CCC(NCCO)C1 (configuration not stated), the Kd is reported as > 4 mM (inactive).
For Cn1c(SCCC(=O)O)nnc1-c1cccnc1, the Kd was > 4 mM (inactive).
With C/C=C(\C)c1nnc(NC(=O)C(C)C)s1 the Kd was > 4 mM (inactive).
With NCc1ccc(S(=O)(=O)O)cc1 the Kd was > 4 mM (inactive).
CC(=O)Nc1ccc(NC(=O)C2CC2)cc1 was tested, and the Kd was > 4 mM (inactive).
Cc1cc(O)c2c(c1)C(=O)c1cccc(O)c1C2=O was tested, and the Kd was > 4 mM (inactive).
With CSc1nc(-c2ccccc2)ccc1C(N)=O the Kd was > 4 mM (inactive).
For Cc1cc(C)n2nc(NCc3ccccc3)nc2n1, the Kd was > 4 mM (inactive).
In the case of Cc1cc(C(=O)N2CCN(S(C)(=O)=O)CC2)cs1, the Kd is reported as > 4 mM (inactive).
CSc1ccn(CCC(=O)O)c(=O)n1 was tested, and the Kd was > 4 mM (inactive).
Cc1cc(C(=O)Nc2ccc3c(c2)OCCO3)c(C)o1 was tested, and the Kd was > 4 mM (inactive).
ON=c1ccc2nc3ccccc3nc2cc1 was tested, and the Kd was > 4 mM (inactive).
With C=C1C([C@]2(C)C(CC(=O)OC)[C@@](C)(COC(C)=O)OC(=O)C[C@@H]2OC(C)=O)[C@@H](OC=O)[C@H](OC(=O)C(OC(C)=O)C(C)CC)[C@@]2(C)[C@H](c3ccoc3)CC(=O)C12O (some centres not stated) the Kd was > 4 mM (inactive).
With COc1cc(/C=C/C(=O)O)ccc1O the Kd was > 4 mM (inactive).
With CC(=O)N=c1cccc(NC(C)=O)n1O the Kd was > 4 mM (inactive).
With O=C(O)C1CSC(c2cc3ccccc3nc2Cl)N1 (configuration not stated) the Kd was > 4 mM (inactive).
In the case of Cc1cc(NC(=O)c2ccccc2C(=O)O)no1, the Kd is reported as > 4 mM (inactive).
CC(=O)Nc1nc(C)c(C(C)=O)s1 was tested, and the Kd was > 4 mM (inactive).
With CC(=O)c1cnc(Nc2nc(C)c3ccccc3n2)nc1C the Kd was > 4 mM (inactive).
For COCc1nc(-c2cc(Br)ccc2OC)no1, the Kd was > 4 mM (inactive).
O=C(O)C1CSC(c2ccco2)N1 (configuration not stated) was tested, and the Kd was > 4 mM (inactive).
In the case of CC(C)c1c(O)ccc2c1CCC1[C@@](C)(C=O)CCC[C@]21C (some centres not stated), the Kd is reported as > 4 mM (inactive).
CCOC(=O)CN1C(=O)c2ccccc2C1=O was tested, and the Kd was > 4 mM (inactive).
In the case of O=C(O)c1cccc2nsnc12, the Kd is reported as > 4 mM (inactive).
In the case of CNC(=O)C(=O)Nc1cccc(Cl)c1, the Kd is reported as > 4 mM (inactive).
With COc1ccc(-c2coc3cc(O)ccc3c2=O)c(O)c1O the Kd was > 4 mM (inactive).
In the case of CC(C)=NNC(=O)C(=O)Nc1ccc(F)cc1, the Kd is reported as > 4 mM (inactive).
In the case of Clc1ccc2c(N3CCNCC3)ccnc2c1, the Kd is reported as > 4 mM (inactive).
In the case of O/N=C1/CCCc2nonc21, the Kd is reported as > 4 mM (inactive).
CC(C(N)=O)N1C(=O)c2ccccc2C1=O (configuration not stated) was tested, and the Kd was > 4 mM (inactive).
In the case of COCCn1c(SC)nc2c1c(=O)[nH]c(=O)n2C, the Kd is reported as > 4 mM (inactive).
In the case of CCOC(=O)c1ccc(F)cc1F, the Kd is reported as > 4 mM (inactive).
OCC12COC3c4ccccc4C(OC1)N32 (configuration not stated) was tested, and the Kd was > 4 mM (inactive).
In the case of Brc1ccc(-c2nc(-c3ccncc3)no2)o1, the Kd is reported as > 4 mM (inactive).
CCCC(=O)N1CCSCC1 was tested, and the Kd was > 4 mM (inactive).
